Reference: ChEMBL document CHEMBL1201862, “PubChem BioAssay data set” (2004)
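Step 1: Grow cells in 96-well plates. Step 2: Expose to compound for 48 hours at 5 concentrations. Step 3: Interpolate endpoints linearly; if unreached, use highest concentration. GI50 is the concentration that inhibits growth by half.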 The source made the active and inactive calls. Rule as the data show it: active = GI50 up to about 1.1 µM and inactive = higher.

Experiments:
Experiment in all cases: growth of human tumour cells (NCI), 48 h
[1] = test system: 786-0
[2] = test system: A498
[3] = test system: A549
[4] = test system: ACHN
[5] = test system: BT-549
[6] = test system: CAKI-1
[7] = test system: CCRF-CEM
[8] = test system: COLO 205
[9] = test system: DU-145
[10] = test system: EKVX
[11] = test system: HCT-116
[12] = test system: HCT-15
[13] = test system: HOP-62
[14] = test system: HOP-92
[15] = test system: HT-29
[16] = test system: Hs-578T
[17] = test system: IGROV-1
[18] = test system: K562
[19] = test system: KM12
[20] = test system: LOX IMVI
[21] = test system: M14
[22] = test system: MCF7
[23] = test system: MDA-MB-231
[24] = test system: MDA-MB-435
[25] = test system: MDA-N
[26] = test system: MOLT-4
[27] = test system: Malme-3M
[28] = test system: NCI-H226
[29] = test system: NCI-H23
[30] = test system: NCI-H460
[31] = test system: NCI-H522
[32] = test system: NCI/ADR-RES
[33] = test system: OVCAR-3
[34] = test system: OVCAR-4
[35] = test system: OVCAR-5
[36] = test system: OVCAR-8
[37] = test system: PC-3
[38] = test system: RPMI-8226
[39] = test system: RXF 393
[40] = test system: SF-268
[41] = test system: SF-295
[42] = test system: SF-539
[43] = test system: SK-MEL-28
[44] = test system: SK-MEL-2
[45] = test system: SK-MEL-5
[46] = test system: SK-OV-3
[47] = test system: SN12C
[48] = test system: SNB-19
[49] = test system: SNB-75
[50] = test system: SR
[51] = test system: SW-620
[52] = test system: T47D
[53] = test system: TK-10
[54] = test system: U-251
[55] = test system: UACC-257
[56] = test system: UACC-62
[57] = test system: HCC 2998
[58] = test system: HL-60
[59] = test system: UO-31

In the case of `O=C(O)CCN1C(=S)CSC1=S`, the GI50 [1] is reported as > 100 µM (inactive), the GI50 [2] is reported as > 100 µM (inactive) and the GI50 [3] is reported as > 100 µM (inactive). The GI50 [4] was > 100 µM (inactive), the GI50 [5] was > 100 µM (inactive) and the GI50 [6] was > 100 µM (inactive). The GI50 [7] was 44.2 µM (inactive), the GI50 [8] was > 100 µM (inactive) and the GI50 [9] was > 100 µM (inactive). For the same compound, the GI50 [10] was > 100 µM (inactive), the GI50 [11] was > 100 µM (inactive) and the GI50 [12] was over 100 µM. For the same compound, the GI50 [13] was > 100 µM (inactive), the GI50 [14] was > 100 µM (inactive) and the GI50 [15] was > 100 µM (inactive). The GI50 [16] was > 100 µM (inactive), the GI50 [17] was > 100 µM (inactive) and the GI50 [18] was 78 µM (inactive). The GI50 [19] was > 100 µM (inactive), the GI50 [20] was 94.4 µM (inactive) and the GI50 [21] was > 100 µM (inactive). The GI50 [22] was 67.5 µM (inactive), the GI50 [23] was > 100 µM (inactive) and the GI50 [24] was > 100 µM (inactive). The GI50 [25] was > 100 µM (inactive), the GI50 [26] was 42 µM (inactive) and the GI50 [27] was > 100 µM (inactive). The GI50 [28] was > 100 µM (inactive), the GI50 [29] was > 100 µM (inactive) and the GI50 [30] was 88.1 µM (inactive). For the same compound, the GI50 [31] was 67.8 µM (inactive), the GI50 [32] was > 100 µM (inactive) and the GI50 [33] was > 100 µM (inactive). The GI50 [34] was > 100 µM (inactive), the GI50 [35] was > 100 µM (inactive) and the GI50 [36] was > 100 µM (inactive). The GI50 [37] was > 100 µM (inactive), the GI50 [38] was 54.7 µM (inactive) and the GI50 [39] was > 100 µM (inactive). The GI50 [40] was > 100 µM (inactive), the GI50 [41] was > 100 µM (inactive) and the GI50 [42] was > 100 µM (inactive). The GI50 [43] was > 100 µM (inactive), the GI50 [44] was > 100 µM (inactive) and the GI50 [45] was > 100 µM (inactive). The GI50 [46] was > 100 µM (inactive), the GI50 [47] was > 100 µM (inactive) and the GI50 [48] was > 100 µM (inactive). For the same compound, the GI50 [49] was > 100 µM (inactive), the GI50 [50] was 39.7 µM (inactive) and the GI50 [51] was > 100 µM (inactive). For the same compound, the GI50 [52] was > 100 µM (inactive), the GI50 [53] was > 100 µM (inactive) and the GI50 [54] was > 100 µM (inactive). The GI50 [55] was > 100 µM (inactive) and the GI50 [56] was > 100 µM (inactive).
In the case of `COc1cccc(C2c3cc4c(cc3OC(N3CCCCC3)C2C)OCO4)c1O` (centres undefined), the GI50 [1] is reported as 4.72 µM (inactive), the GI50 [3] is reported as 6.52 µM (inactive) and the GI50 [4] is reported as 6.55 µM (inactive). The GI50 [5] was 9.2 µM (inactive), the GI50 [6] was 5.48 µM (inactive) and the GI50 [7] was 2.4 µM (inactive). For the same compound, the GI50 [8] was 4.89 µM (inactive), the GI50 [9] was 7.53 µM (inactive) and the GI50 [10] was 14.7 µM (inactive). The GI50 [57] was 10.5 µM (inactive), the GI50 [11] was 4.89 µM (inactive) and the GI50 [12] was 4.21 µM. The GI50 [58] was 2.54 µM (inactive), the GI50 [13] was 4.11 µM (inactive) and the GI50 [14] was 8.18 µM (inactive). For the same compound, the GI50 [15] was 3.43 µM (inactive), the GI50 [16] was 3.63 µM (inactive) and the GI50 [17] was 8.81 µM (inactive). For the same compound, the GI50 [18] was 2.23 µM (inactive), the GI50 [19] was 4.47 µM (inactive) and the GI50 [20] was 5.21 µM (inactive). For the same compound, the GI50 [21] was 4.2 µM (inactive), the GI50 [22] was 5.6 µM (inactive) and the GI50 [23] was 11.2 µM (inactive). For the same compound, the GI50 [24] was 1.75 µM (inactive), the GI50 [25] was 2.3 µM (inactive) and the GI50 [26] was 3.96 µM (inactive). For the same compound, the GI50 [27] was 4.53 µM (inactive), the GI50 [28] was 6.55 µM (inactive) and the GI50 [29] was 7.31 µM (inactive). The GI50 [30] was 4.13 µM (inactive), the GI50 [31] was 2.74 µM (inactive) and the GI50 [32] was 5.12 µM (inactive). The GI50 [33] was 2.93 µM (inactive), the GI50 [34] was 7.38 µM (inactive) and the GI50 [35] was 17.7 µM (inactive). The GI50 [36] was 5.9 µM (inactive), the GI50 [37] was 4.83 µM (inactive) and the GI50 [38] was 3.21 µM (inactive). The GI50 [39] was 3.25 µM (inactive), the GI50 [40] was 9.71 µM (inactive) and the GI50 [41] was 4.26 µM (inactive). For the same compound, the GI50 [42] was 2.22 µM (inactive), the GI50 [43] was 6.27 µM (inactive) and the GI50 [44] was 9.16 µM (inactive). For the same compound, the GI50 [45] was 3.62 µM (inactive), the GI50 [46] was 6.79 µM (inactive) and the GI50 [47] was 4.69 µM (inactive). The GI50 [48] was 7.93 µM (inactive), the GI50 [49] was 5.41 µM (inactive) and the GI50 [50] was 3.01 µM (inactive). The GI50 [51] was 3.97 µM (inactive), the GI50 [52] was 8.38 µM (inactive) and the GI50 [53] was 13.8 µM (inactive). For the same compound, the GI50 [54] was 3.82 µM (inactive), the GI50 [55] was 8.04 µM (inactive) and the GI50 [56] was 5.92 µM (inactive). The GI50 [59] was 12.4 µM (inactive).
